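Grown in 96-well plates, cells were treated for 48 hours with each compound at five concentrations. Insufficient inhibition: endpoint recorded as highest concentration tested. GI50 is the concentration that inhibits growth by half.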 Active and inactive are the calls of the source. Rule as the data show it: active = GI50 up to about 1.1 µM and inactive = higher.
Experiments:
Experiment in all cases: NCI anticancer screen, dose series, 48 h
HT-29 = system: HT-29
NCI-H23 = system: NCI-H23
OVCAR-5 = system: OVCAR-5
SK-MEL-28 = system: SK-MEL-28
SK-MEL-2 = system: SK-MEL-2
SF-295 = system: SF-295
OVCAR-4 = system: OVCAR-4
NCI/ADR-RES = system: NCI/ADR-RES
U-251 = system: U-251
LOX IMVI = system: LOX IMVI
MDA-MB-435 = system: MDA-MB-435
PC-3 = system: PC-3
HL-60 = system: HL-60
SF-539 = system: SF-539
M14 = system: M14
CAKI-1 = system: CAKI-1
SK-MEL-5 = system: SK-MEL-5
COLO 205 = system: COLO 205
SN12C = system: SN12C
T47D = system: T47D
MOLT-4 = system: MOLT-4
SW-620 = system: SW-620
NCI-H226 = system: NCI-H226
HCT-116 = system: HCT-116
RPMI-8226 = system: RPMI-8226
OVCAR-8 = system: OVCAR-8
TK-10 = system: TK-10
CCRF-CEM = system: CCRF-CEM
HCT-15 = system: HCT-15
EKVX = system: EKVX
A549 = system: A549
BT-549 = system: BT-549
MCF7 = system: MCF7
UO-31 = system: UO-31
HOP-62 = system: HOP-62
SK-OV-3 = system: SK-OV-3
ACHN = system: ACHN
HCC 2998 = system: HCC 2998
UACC-257 = system: UACC-257
MDA-MB-231 = system: MDA-MB-231
DU-145 = system: DU-145
A498 = system: A498
UACC-62 = system: UACC-62
NCI-H522 = system: NCI-H522
NCI-H460 = system: NCI-H460
IGROV-1 = system: IGROV-1
SR = system: SR
RXF 393 = system: RXF 393
K562 = system: K562
786-0 = system: 786-0
SNB-75 = system: SNB-75
KM12 = system: KM12
OVCAR-3 = system: OVCAR-3
SF-268 = system: SF-268
Malme-3M = system: Malme-3M
HOP-92 = system: HOP-92
MDA-N = system: MDA-N
SNB-19 = system: SNB-19

CCOCCOCCOCc1nc(C#N)c(N)o1
GI50 (HT-29): > 100 µM (inactive)
GI50 (NCI-H23): > 100 µM (inactive)
GI50 (OVCAR-5): > 100 µM (inactive)
GI50 (SK-MEL-28): > 100 µM (inactive)
GI50 (SK-MEL-2): > 100 µM (inactive)
GI50 (SF-295): > 100 µM (inactive)
GI50 (OVCAR-4): > 100 µM (inactive)
GI50 (NCI/ADR-RES): > 100 µM (inactive)
GI50 (U-251): > 100 µM (inactive)
GI50 (LOX IMVI): > 100 µM (inactive)
GI50 (MDA-MB-435): > 100 µM (inactive)
GI50 (PC-3): > 100 µM (inactive)
GI50 (HL-60): > 100 µM (inactive)
GI50 (SF-539): > 100 µM (inactive)
GI50 (M14): > 100 µM (inactive)
GI50 (CAKI-1): > 100 µM (inactive)
GI50 (SK-MEL-5): > 100 µM (inactive)
GI50 (COLO 205): > 100 µM (inactive)
GI50 (SN12C): > 100 µM (inactive)
GI50 (T47D): > 100 µM (inactive)
GI50 (MOLT-4): > 100 µM (inactive)
GI50 (SW-620): > 100 µM (inactive)
GI50 (NCI-H226): > 100 µM (inactive)
GI50 (HCT-116): > 100 µM (inactive)
GI50 (RPMI-8226): > 100 µM (inactive)
GI50 (OVCAR-8): > 100 µM (inactive)
GI50 (TK-10): > 100 µM (inactive)
GI50 (CCRF-CEM): > 100 µM (inactive)
GI50 (HCT-15): > 100 µM
GI50 (EKVX): > 100 µM (inactive)
GI50 (A549): > 100 µM (inactive)
GI50 (BT-549): > 100 µM (inactive)
GI50 (MCF7): > 100 µM (inactive)
GI50 (UO-31): > 100 µM (inactive)
GI50 (HOP-62): > 100 µM (inactive)
GI50 (SK-OV-3): > 100 µM (inactive)
GI50 (ACHN): > 100 µM (inactive)
GI50 (HCC 2998): > 100 µM (inactive)
GI50 (UACC-257): > 100 µM (inactive)
GI50 (MDA-MB-231): > 100 µM (inactive)
GI50 (DU-145): > 100 µM (inactive)
GI50 (A498): > 100 µM (inactive)
GI50 (UACC-62): > 100 µM (inactive)
GI50 (NCI-H522): 93.1 µM (inactive)
GI50 (NCI-H460): > 100 µM (inactive)
GI50 (IGROV-1): > 100 µM (inactive)
GI50 (SR): > 100 µM (inactive)
GI50 (RXF 393): > 100 µM (inactive)
GI50 (K562): > 100 µM (inactive)
GI50 (786-0): > 100 µM (inactive)
GI50 (SNB-75): > 100 µM (inactive)
GI50 (KM12): > 100 µM (inactive)
GI50 (OVCAR-3): > 100 µM (inactive)
GI50 (SF-268): > 100 µM (inactive)

CCOC(=O)C1=C(N2CCCC2)C(=O)C(C(=O)OCC)C1 (stereo not given)
GI50 (NCI-H23): > 100 µM (inactive)
GI50 (OVCAR-5): > 100 µM (inactive)
GI50 (SK-MEL-28): > 100 µM (inactive)
GI50 (Malme-3M): > 100 µM (inactive)
GI50 (SK-MEL-2): > 100 µM (inactive)
GI50 (SF-295): > 100 µM (inactive)
GI50 (OVCAR-4): > 100 µM (inactive)
GI50 (NCI/ADR-RES): > 100 µM (inactive)
GI50 (U-251): > 100 µM (inactive)
GI50 (LOX IMVI): > 100 µM (inactive)
GI50 (MDA-MB-435): > 100 µM (inactive)
GI50 (PC-3): > 100 µM (inactive)
GI50 (SF-539): > 100 µM (inactive)
GI50 (M14): > 100 µM (inactive)
GI50 (CAKI-1): > 100 µM (inactive)
GI50 (HOP-92): > 100 µM (inactive)
GI50 (SK-MEL-5): > 100 µM (inactive)
GI50 (COLO 205): > 100 µM (inactive)
GI50 (SN12C): > 100 µM (inactive)
GI50 (T47D): > 100 µM (inactive)
GI50 (MOLT-4): > 100 µM (inactive)
GI50 (SW-620): > 100 µM (inactive)
GI50 (NCI-H226): > 100 µM (inactive)
GI50 (HCT-116): > 100 µM (inactive)
GI50 (RPMI-8226): > 100 µM (inactive)
GI50 (OVCAR-8): > 100 µM (inactive)
GI50 (TK-10): > 100 µM (inactive)
GI50 (HCT-15): > 100 µM
GI50 (EKVX): > 100 µM (inactive)
GI50 (A549): > 100 µM (inactive)
GI50 (BT-549): > 100 µM (inactive)
GI50 (MCF7): > 100 µM (inactive)
GI50 (MDA-N): > 100 µM (inactive)
GI50 (UO-31): > 100 µM (inactive)
GI50 (HOP-62): > 100 µM (inactive)
GI50 (SK-OV-3): > 100 µM (inactive)
GI50 (ACHN): > 100 µM (inactive)
GI50 (HCC 2998): > 100 µM (inactive)
GI50 (UACC-257): > 100 µM (inactive)
GI50 (MDA-MB-231): > 100 µM (inactive)
GI50 (A498): > 100 µM (inactive)
GI50 (NCI-H522): > 100 µM (inactive)
GI50 (NCI-H460): > 100 µM (inactive)
GI50 (IGROV-1): > 100 µM (inactive)
GI50 (RXF 393): > 100 µM (inactive)
GI50 (K562): > 100 µM (inactive)
GI50 (786-0): > 100 µM (inactive)
GI50 (SNB-19): > 100 µM (inactive)
GI50 (SNB-75): > 100 µM (inactive)
GI50 (KM12): > 100 µM (inactive)
GI50 (OVCAR-3): > 100 µM (inactive)
GI50 (SF-268): > 100 µM (inactive)

O=c1c2nc[nH]c2n(-c2ccccc2)c(=S)n1-c1ccccc1
GI50 (HT-29): > 100 µM (inactive)
GI50 (NCI-H23): > 100 µM (inactive)
GI50 (OVCAR-5): > 100 µM (inactive)
GI50 (SK-MEL-28): > 100 µM (inactive)
GI50 (SK-MEL-2): > 100 µM (inactive)
GI50 (SF-295): > 100 µM (inactive)
GI50 (OVCAR-4): > 100 µM (inactive)
GI50 (NCI/ADR-RES): > 100 µM (inactive)
GI50 (U-251): > 100 µM (inactive)
GI50 (LOX IMVI): > 100 µM (inactive)
GI50 (MDA-MB-435): > 100 µM (inactive)
GI50 (PC-3): > 100 µM (inactive)
GI50 (HL-60): > 100 µM (inactive)
GI50 (SF-539): > 100 µM (inactive)
GI50 (M14): > 100 µM (inactive)
GI50 (CAKI-1): > 100 µM (inactive)
GI50 (SK-MEL-5): > 100 µM (inactive)
GI50 (COLO 205): > 100 µM (inactive)
GI50 (SN12C): > 100 µM (inactive)
GI50 (T47D): > 100 µM (inactive)
GI50 (MOLT-4): > 100 µM (inactive)
GI50 (SW-620): > 100 µM (inactive)
GI50 (NCI-H226): > 100 µM (inactive)
GI50 (HCT-116): > 100 µM (inactive)
GI50 (RPMI-8226): > 100 µM (inactive)
GI50 (OVCAR-8): > 100 µM (inactive)
GI50 (TK-10): > 100 µM (inactive)
GI50 (CCRF-CEM): > 100 µM (inactive)
GI50 (HCT-15): > 100 µM
GI50 (EKVX): > 100 µM (inactive)
GI50 (A549): > 100 µM (inactive)
GI50 (BT-549): > 100 µM (inactive)
GI50 (MCF7): > 100 µM (inactive)
GI50 (UO-31): > 100 µM (inactive)
GI50 (HOP-62): > 100 µM (inactive)
GI50 (SK-OV-3): > 100 µM (inactive)
GI50 (ACHN): > 100 µM (inactive)
GI50 (HCC 2998): > 100 µM (inactive)
GI50 (UACC-257): > 100 µM (inactive)
GI50 (MDA-MB-231): > 100 µM (inactive)
GI50 (DU-145): > 100 µM (inactive)
GI50 (A498): > 100 µM (inactive)
GI50 (UACC-62): > 100 µM (inactive)
GI50 (NCI-H522): > 100 µM (inactive)
GI50 (NCI-H460): > 100 µM (inactive)
GI50 (IGROV-1): > 100 µM (inactive)
GI50 (SR): > 100 µM (inactive)
GI50 (RXF 393): > 100 µM (inactive)
GI50 (K562): > 100 µM (inactive)
GI50 (786-0): > 100 µM (inactive)
GI50 (SNB-75): > 100 µM (inactive)
GI50 (KM12): > 100 µM (inactive)
GI50 (OVCAR-3): > 100 µM (inactive)
GI50 (SF-268): > 100 µM (inactive)
